Each block holds one compound with its values, some of them ahead of it.
Experiments:
[1] = Food intake and weight in control and 2-AAA treated mice; format: in vivo; conditions: 2-AAA 500 mg/kg/day via drinking water, up to 5 weeks
Excerpt: FIGS. 3A and 3B are graphs depicting serial weights and food intake in control and 2-AAA treated animals.
(§1) Intervention studies in mice were completed to examine whether 2-AAA might play a contributory or compensatory role in glucose homeostasis by performing 2-AAA. For this study, four independent cohorts of 24 C57B/L6 male mice entered the study protocol at 6 weeks of age. Two cohorts received the standard chow diet and two cohorts received a high-fat diet. Half of the mice assigned to each diet received 2-AAA (500 mg/kg/day equivalent to a starting dose of 12.03±0.30 mM) via the drinking water for up to five weeks. Pre-weighed food and water were administered to each cage. Food and water intake was monitored weekly. Mice supplemented with 2-AAA had 33% higher plasma levels of this metabolite by one week of treatment (p=0.018).
Fasting plasma glucose levels were measured weekly in mice fed either a standard chow (left) or high-fat diet (right) beginning at 6 weeks of age, with simultaneous 2-AAA treatment via drinking water (500/mg/kg/day) or water alone for the subsequent 5 weeks. (n=24 mice per condition) (*p<0.05; **p<0.01; ***p<0.001). For mice on the SCD, fasting glucose levels were 109.5±3.8 mg/dL for the 2-aminoadipic treated animals as compared to 124.5±4.9 mg/dL, for the untreated controls after 5 weeks (p<0.01, FIG. 2A). […]

[2] = system: Islets from male C57BL/6J mice; experiment: Insulin secretion from isolated mouse islets; format: cell-based; conditions: 30 μM 2-AAA for 6 hours; 2.5 mmol/l glucose; normalized to islet content
Protocol: FIG. 9 is a graph depicting insulin secretion from islets isolated from male C57BL/6J mice following incubation with 30 μM 2-AAA for 6 hours. Insulin was assayed using the Meso Scale Discovery multi array assay system for mouse/rat total insulin (Gaithersburg, Md., USA). Secretion was normalized to islet content. (n=3, p=0.016)
Islets from male C57BL/6J mice were isolated by collagenase digestion of the pancreas, purified by Ficoll density gradient and then handpicked. Mouse islets were cultured for 24 hours as previously described (26). For insulin secretion experiments, 15 islets were placed in each microcentrifuge tube and incubated in islet secretion buffer containing (in mmol/1) 120 NaCl, 5 KCl, 1 CaCl2, 1.2 MgCl2, 24 NaHCO3, 10 HEPES, and 2.5 glucose, bubbled with 95% O2/5% CO2 and supplemented with 0.5% (wt/vol) BSA. Experiments were performed by incubating islets in 1 ml of secretion buffer in the presence or absence of 30 μM 2-AAA for 6 hours at 37° C., 5% CO2. Insulin was assayed using the Meso Scale Discovery multi array assay system for mouse/rat total insulin (Gaithersburg, Md., USA). Secretion was normalized to islet content.

C57B/L6 male mice [3] = experiment: Intra-peritoneal glucose tolerance test (IPGTT) after chronic 2-AAA treatment; format: in vivo; conditions: IPGTT 1.5 mg/g; mice fed SCD and HFD for 5 weeks or greater
Protocol: FIG. 4 is a graph depicting plasma glucose levels in 2-AAA mice fed either a standard chow (left) or high-fat diet (right) following IPGTT challenge after completion of the 2-AAA chronic treatment in mice fed either the standard chow or high-fat diet. (n=12 mice per condition) (*p<0.05; **p<0.01).
(§2) Fasting insulin levels in mice were measured by an ELISA kit (Crystal Chem Inc., Downers Grove Ill.). After 5 weeks of 2-AAA treatment, and following a 6-hour fast, each group of mice was administered an intra-peritoneal glucose tolerance test (IPGTT; 1.5 mg/g of body weight; 75 mg/mL of glucose solution) or an insulin tolerance test (ITT; 0.00075 U of insulin/g of body weight, 0.15 U/ml insulin solution, Sigma-Aldrich, St. Louis, Mo.). For the IPGTT, venous blood samples were obtained from the tail vein immediately prior to glucose injection and then serially at 30, 60, and 120 minutes following the injection. For the ITT, venous blood samples were obtained from the tail vein immediately prior to the insulin injection and then serially at 15, 30, 45 and 60 minutes following the injection.
(§3) Additional studies were performed using acute physiologic challenges, including acute glucose and insulin administration. As expected, mice fed a HFD had more pronounced glucose excursions following the glucose challenge (FIG. 4). […]

C57B/L6 male mice [4] = experiment: Fasting plasma glucose in mice given 2-AAA chronically via drinking water; format: in vivo; conditions: for fasting glucose levels: 2-AAA 500 mg/kg/day via drinking water, mean ± SEM
Protocol: FIGS. 2A and B are graphs depicting fasting plasma glucose levels in 2-AAA in mice fed either a standard chow (2A) or high-fat diet (2B). Fasting plasma glucose levels were measured weekly in mice fed either a standard chow (left) or high-fat diet (right) beginning at 6 weeks of age, with simultaneous 2-AAA treatment via drinking water (500/mg/kg/day) or water alone for the subsequent 5 weeks. (n=24 mice per condition) (*p<0.05; **p<0.01; ***p<0.001).
The effect of a Western-style diet on circulating 2-AAA levels in mice was examined. C57BL/6 male mice (Jackson Laboratories, Bar Harbor, Me.) were housed in separate cages with free access to food and water. Mice were fed a standard chow diet containing 22.5% protein, 52% carbohydrates, 6% fat, 6% ash and 4% fiber (Prolab Isopro RMH 3000, Brentwood, Mo.) or a high-fat diet containing 20 kcal % protein, 20 kcal % carbohydrate and 60 kcal % fat (DIO formula, D12492, Research Diets, Inc, New Brunswick, N.J.) as indicated. The total energy equivalent was 3.46 kcal/gm for the standard chow diet and 5.24 kcal/gm for the high fat diet.
as §1
Fasting plasma glucose levels were measured weekly in mice fed either a standard chow (left) or high-fat diet (right) beginning at 6 weeks of age, with simultaneous 2-AAA treatment via drinking water (500/mg/kg/day) or water alone for the subsequent 5 weeks. […]

C57B/L6 male mice [5] = experiment: Insulin tolerance test (ITT, acute insulin challenge) after 2-AAA treatment; format: in vivo; conditions: ITT 0.00075 U insulin/g; SCD and HFD
Protocol: FIGS. 6A and 6B are graphs depicting plasma glucose levels 2-AAA mice fed either a standard chow (left) or high-fat diet (right) measured following acute insulin challenge (n=15 per condition).
as §2
as §3, with “4). In mice fed both the SCD and HFD for 5 weeks or greater, peak glucose concentrations following the glucose challenge were lower in the 2-AAA treated mice.” for “4).”

[6] = Plasma 2-AAA level in mice supplemented with 2-AAA; format: in vivo; conditions: 500 mg/kg/day via drinking water; by one week of treatment; p=0.018
Protocol: as §1
For the perigonadal adipose tissue, metabolites were first extracted by mixing harvested tissues with 6 μL per 1 mg of adipose tissue of a MeOH:Chloroform solution (2:1 v/v). The extracted adipose tissues were then homogenized for 4 minutes at 25 Hz in a TissueLyser II. […] A calibration curve using 2-AAA d3 (C/D/N Isotopes Inc, Quebec Canada) was generated for absolute quantitation of 2-AAA in plasma and tissue samples. […] An isotopically labeled standard was used to facilitate absolute quantitation of the metabolite of interest in the setting of the different biological matrices.

Beta TC6 (BTC6) cells = experiment: Insulin secretion by BTC6 pancreatic beta cell line; format: cell-based, mouse; conditions: for insulin secretion: 100 μM, 2.5 mM glucose
Protocol: FIG. 8A is a graph depicting percent insulin secretion by BTC6 cells following incubation with 2-AAA at concentrations ranging from 0 to 100 μM for 0.5 to 72 hours.
FIG. 8B is a graph depicting the effects of 2-AAA (30 μM), clonidine (100 μM) and phentolamine (100 μM) on insulin secretion by BTC6 cells.
To investigate the connection between 2-AAA and the pancreas, insulin production by a pancreatic beta cell line that was acutely and chronically exposed to 2-AAA. Beta TC6 (BTC6) cells, an established model to examine insulin secretion (mouse insulinoma beta-TC-6 (ATCC® CRL-11506™) from ATCC (Manassas, Va.)) (27-29), were used at passage number 4-7, grown in DMEM (ATCC 2002-30), 15% FBS, with penicillin/streptomycin (100 IU/ml/100 μg/ml). Cells were plated on 24 well collagen plates at 40,000 cells per well, incubated with 2-AAA at varying concentrations ranging from 0 to 100 μM for 0 to 72 hours to assess whether this compound increases insulin secretion in a time and/or dose dependent fashion. On the day of experimentation, the cells were washed with PBS and the media was changed to DMEM without FBS or glucose to which 0.1% BSA was added. After 1 hour of incubation, this media was changed to serum free media containing 2.5 mM of glucose. Insulin production was measured in the supernatant after 1 additional hour of incubation. To assess the time response relationship, 2-AAA was added to the cells after plating on collagen and incubated for 0.5, 2, 6, and 72 hours.

C57B/L6 male mice [7] = experiment: Fasting plasma insulin levels (ELISA) after 2-AAA treatment; format: in vivo; conditions: after 5 weeks of 2-AAA; increase seen in HFD animals
Protocol: FIG. 5 is a graph depicting fasting plasma insulin levels in 2-AAA mice fed either a standard chow (left) or high-fat diet (right) measured following completion of the 2-AAA treatment (5 weeks) in the mice on both diets (n=12 mice per condition) (*p<0.05).
as §2, §3

differences in food intake or weight between treated and control mice [1]: no significant differences
increase in plasma levels of 2-AAA versus unsupplemented mice [6]: 33%
Compound: N[C@H](CCCC(=O)O)C(=O)O (stereo in doubt) [2-AAA, 2-aminoadipic acid]
insulin release from islets [2]: release insulin
peak glucose concentrations following the glucose challenge versus control (C57B/L6 male mice [3]): lower
fasting glucose levels in treated mice versus water alone (C57B/L6 male mice [4]; both diets, p<0.001 by 2-way ANOVA after 5 weeks): consistently lower
fasting glucose levels (C57B/L6 male mice [4]; mice on high-fat diet (HFD), at 5 weeks): 134.5 ± 5.9 mg/dL
fasting glucose levels (C57B/L6 male mice [4]; mice on standard chow diet (SCD), after 5 weeks): 109.5 ± 3.8 mg/dL
effect on rate of decline in glucose levels following acute insulin challenge (C57B/L6 male mice [5]): no effect
insulin secretion from BTC6 cells (Beta TC6 (BTC6) cells; 2-AAA 0 to 100 μM for 0.5 to 72 hours): induced insulin secretion from BTC6 cells in a dose and time dependent fashion
incubation time at which augmented insulin secretion was evident (Beta TC6 (BTC6) cells; BTC6 cells): at least 6 hours
peak insulin secretion relative to that of phentolamine (172±8% of control) (Beta TC6 (BTC6) cells; BTC6 cells, 2-AAA 30 μM vs phentolamine 100 μM): comparable
fasting insulin levels versus untreated animals (C57B/L6 male mice [7]): further augmented

Compound: Clc1cccc(Cl)c1N=C1NCCN1 [clonidine, reference compound]
insulin secretion (Beta TC6 (BTC6) cells; BTC6 cells): 60±3 % of control

Compound: Cc1ccc(N(CC2=NCCN2)c2cccc(O)c2)cc1 [phentolamine, reference compound]
insulin secretion (Beta TC6 (BTC6) cells; BTC6 cells): 172±8 % of control

— patent US20160030373A1, “2-AAA as a Biomarker and Therapeutic Agent for Diabetes” (THE GENERAL HOSPITAL CORPORATION, priority 2013, published 2016)
